Results reported in patent publication US6583180B2, “Glucocorticoid receptor modulators” (Abbott Laboratories, priority 2001, dated 2003).

Molecular target: T1, Human glucocorticoid receptors (Homo sapiens, UniProt P04150)
T1 construct: made in house; host or cells: Sf9 insect cells, recombinant baculovirus (BAC-TO-BAC)
T1 sequence (P04150 1-777): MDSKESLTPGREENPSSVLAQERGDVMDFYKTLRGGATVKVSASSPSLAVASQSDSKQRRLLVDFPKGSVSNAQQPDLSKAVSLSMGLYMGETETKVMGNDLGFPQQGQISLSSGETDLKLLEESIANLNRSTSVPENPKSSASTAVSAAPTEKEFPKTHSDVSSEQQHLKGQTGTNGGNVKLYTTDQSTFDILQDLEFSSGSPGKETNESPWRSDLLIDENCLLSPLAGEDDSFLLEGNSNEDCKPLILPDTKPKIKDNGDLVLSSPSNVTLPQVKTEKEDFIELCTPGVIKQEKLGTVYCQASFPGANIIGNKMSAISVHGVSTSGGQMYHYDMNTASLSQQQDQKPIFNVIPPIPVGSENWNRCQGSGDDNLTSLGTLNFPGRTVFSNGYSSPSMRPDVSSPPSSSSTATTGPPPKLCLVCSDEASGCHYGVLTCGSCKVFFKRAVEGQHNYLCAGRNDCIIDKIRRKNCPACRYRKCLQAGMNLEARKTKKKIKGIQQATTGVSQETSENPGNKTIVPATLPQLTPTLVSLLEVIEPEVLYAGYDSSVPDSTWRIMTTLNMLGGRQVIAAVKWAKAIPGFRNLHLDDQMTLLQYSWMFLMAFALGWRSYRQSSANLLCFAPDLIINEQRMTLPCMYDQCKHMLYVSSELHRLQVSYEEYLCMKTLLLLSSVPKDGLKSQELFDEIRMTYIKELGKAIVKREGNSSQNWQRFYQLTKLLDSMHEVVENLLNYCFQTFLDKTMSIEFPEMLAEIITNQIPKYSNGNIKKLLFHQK
Assay: Radioligand filter binding assay, displacement of 3[H]-dexamethasone from hGR
Conditions: read-out: GR Binding (% Inhibition at 1.7 μM)
Text: Dexamethasone hereafter referred to as dex was purchased from SIGMA. […] Human glucocorticoid receptors were extracted from Sf9 cells infected with a recombinant baculovirus transfer vector containing the cloned hGR genes. Recombinant baculovirus was generated utilizing the BAC-TO-BAC expression system (Life Technologies) in accordance to instruction from the supplier. The hGR coding sequences were cloned into a baculovirus transfer vector by standard techniques. The recombinant baculoviruses expressing hGR were amplified and used to infect Sf9 cells. Infected cells were harvested 48 hrs post infection. […] The concentration of hGR in the extract was measured as specific ^3[H]-dex binding with the G25-assay as described in J. Steroid Biochem. Molec. […] The extract was aliquoted and stored at −70° C.
The filter binding assay: Dilution series of the test compounds and dex as reference were made from 10 mM (1 mM dex) stock solutions in DMSO. 10 μl of the dilutions was added in duplicates to the wells. The cell extracts were diluted 10 fold in EPMo+MTG buffer (1 mM EDTA, HPO4 20 mM (pH8), 6 mM MTG). […] 110 μl of the diluted ^3[H]-dex were added to the wells. The final concentration of hGR in the experiment was estimated to 1 nM. All preparations were made in […] on ice and with +4° C. temperated buffers. The plates were incubated over night at +4° C. (15-20 hours).
The incubation was stopped by filtration through GF/B filter on the Tomtec Cellharvester. The filtration on the Tomtec Cellharvester was programmed as follows: 1) Preparation before filtration with EP buffer (1 mM EDTA 20 mM HPO4 (pH8)) 2×[Wash/Asp 0.6 sec., Asp 0.5 sec.]; 2) Prewet of GF/B filter with EP+PEI buffer (EP buffer, 0.3% Polyethylenimine) [Asp 0.8 sec.]; 3) Filtration/harvesting of the 96-well incubation plate 3×[Wash/Asp 0.6 sec., Asp 0.5 sec.]. The GF/B filter was dried for at least 1 hour at 65° C. A MeltiLex scintillation wax was melted onto the filter with the Microsealer. The filter was placed in a samplebag, which was thereafter trimmed with scissors to fit the filter cassette. The cassette were placed in the Microbeta and measured for 1 min/position, returning ccpm (corrected counts per minute).
b=((bmax−bmin)/(1+(I/IC50)^S))+bminI
The Microbeta-instrument generates the mean cpm (counts per minute) value/minute and corrects for individual variations between the detectors thus generating corrected cpm values.

inhibition at 1.7 µM [%] | Structure (SMILES)
94.2 | CCCCCCc1ccc(Oc2ccc(CN(Cc3ccc(F)cc3F)c3cccc(NS(C)(=O)=O)c3C)cc2)cc1OCC(=O)O [Example 238, (5-{4-[((2,4-difluorobenzyl){2-methyl-3-[(methylsulfonyl)amino]phenyl}amino)methyl]phenoxy}-2-hexylphenoxy)acetic acid]
93.4 | CCOC(=O)CN(C)C(=O)CCCOc1cccc(Oc2ccc(CN(Cc3ccccc3)c3cccc(NS(C)(=O)=O)c3C)cc2)c1 [Example 239, ethyl N-[4-(3-{4-[(benzyl{2-methyl-3-[(methylsulfonyl)amino]phenyl}amino)methyl]phenoxy}phenoxy)butanoyl]-N-methylglycinate]
93.3 | Cc1c(NS(C)(=O)=O)cccc1N(Cc1ccccc1)Cc1ccc(Oc2cccc(OCCCC(=O)N(C)CC(=O)O)c2)cc1 [Example 240, N-[4-(3-{4-[(benzyl{2-methyl-3-[(methylsulfonyl)amino]phenyl}amino)methyl]phenoxy}phenoxy)butanoyl]-N-methylglycine]
90.6 | CCOC(=O)COc1cc(Oc2ccc(CN(Cc3ccc(F)cc3F)c3cccc(NS(C)(=O)=O)c3C)cc2)ccc1Cl [Example 241, ethyl (2-chloro-5-{4-[((2,4-difluorobenzyl){2-methyl-3-[(methylsulfonyl)amino]phenyl}amino)methyl]phenoxy}phenoxy)acetate]
94.1 | Cc1c(NS(C)(=O)=O)cccc1N(Cc1ccccc1)Cc1ccc(C(=O)c2cccc(OCCC3CC3)c2)cc1 [Example 242, N-[3-(benzyl{4-[3-(2-cyclopropylethoxy)benzoyl]benzyl}amino)-2-methylphenyl]methanesulfonamide]
88.6 | Cc1c(NS(C)(=O)=O)cccc1N(Cc1ccccc1)Cc1ccc(C(=O)c2cccc(OCCc3ccccc3)c2)cc1 [Example 246, N-[3-(benzyl{4-[3-(2-phenylethoxy)benzoyl]benzyl}amino)-2-methylphenyl]methanesulfonamide]
95.4 | Cc1ncsc1CCOc1cccc(C(=O)c2ccc(CN(Cc3ccccc3)c3cccc(NS(C)(=O)=O)c3C)cc2)c1 [Example 249, N-{3-[benzyl(4-{3-[2-(4-methyl-1,3-thiazol-5-yl)ethoxy]benzoyl}benzyl)amino]-2-methylphenyl}methanesulfonamide]

More lines, now with the values behind:

Structure (SMILES) | inhibition at 1.7 µM [%]
Cc1c(NS(C)(=O)=O)cccc1N(Cc1ccccc1)Cc1ccc(C(=O)c2cccc(OCC3CCCC3)c2)cc1 [Example 243, N-[3-(benzyl{4-[3-(cyclopentylmethoxy)benzoyl]benzyl}amino)-2-methylphenyl]methanesulfonamide] | 92
Cc1c(NS(C)(=O)=O)cccc1N(Cc1ccccc1)Cc1ccc(C(=O)c2cccc(OCC3CCCO3)c2)cc1 (stereo not drawn) [Example 244, N-[3-(benzyl{4-[3-(tetrahydrofuran-2-ylmethoxy)benzoyl]benzyl}amino)-2-methylphenyl]methanesulfonamide] | 95.3
Cc1c(NS(C)(=O)=O)cccc1N(Cc1ccccc1)Cc1ccc(C(=O)c2cccc(OCC3CCOC3)c2)cc1 (stereo not drawn) [Example 245, N-[3-(benzyl{4-[3-(tetrahydrofuran-3-ylmethoxy)benzoyl]benzyl}amino)-2-methylphenyl]methanesulfonamide] | 96.3
Cc1c(NS(C)(=O)=O)cccc1N(Cc1ccccc1)Cc1ccc(C(=O)c2cccc(OCc3ccccc3)c2)cc1 [Example 247, N-[3-(benzyl{4-[3-(benzyloxy)benzoyl]benzyl}amino)-2-methylphenyl]methanesulfonamide] | 90.9
Cc1c(NS(C)(=O)=O)cccc1N(Cc1ccccc1)Cc1ccc(C(=O)c2cccc(OCCN3CCCC3=O)c2)cc1 [Example 248, N-{3-[benzyl(4-{3-[2-(2-oxopyrrolidin-1-yl)ethoxy]benzoyl}benzyl)amino]-2-methylphenyl}methanesulfonamide] | 96.7
